The assay has as its system MDA-MB-468 breast. Description: NCI tumour cell line growth inhibition, 48 h.

Where “and” joins values, the source holds several entries; their conditions need not be identical. Equal values may be shown once.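 Assay format: 96-well plates, 48-hour exposure. GI50 is the concentration that inhibits growth by half. The concentration for full growth arrest is given as TGI.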 Bounds are passed on as bounds.

For the compound `CN(C)c1ccc2nc3ccc(=[N+](C)C)cc-3sc2c1`, the GI50 was 233 nM and 469 nM; the TGI was 1010 nM and 3630 nM.
For the compound `Cc1ccc(CNc2c3ccccc3nc3cc(NC(=O)CCN4CCCC4)ccc23)cc1`, the GI50 is 449 nM and the TGI worked out at 1630 nM.
Turning to `C1CN(SSN2CCOCC2)CCO1`, the GI50 was over 100000 nM and the TGI is over 100000 nM.
As to `O=C(COc1ccc(/C=C2\Oc3ccccc3C2=O)cc1)Nc1nc2c(s1)CCCC2`, the GI50 was 309 nM and the TGI is 1860 nM.
For `O=C(Nc1ccc(Cl)c(Cl)c1)O/N=C\c1c(Cl)ccc([N+](=O)[O-])c1Cl` the same measures were 1080 nM and 2720 nM.
`O=C(/C=C/c1ccc([N+](=O)[O-])cc1)c1ccc2c3c(cccc13)CC2`: the GI50 is 2980 nM and the TGI came out at 19300 nM.
In the case of `Cc1ccc(S(=O)(=O)Nc2cccc3[nH]c(C(F)(F)F)nc23)cc1`, the GI50 was 536 nM and the TGI came out at 26100 nM.
For the compound `NC(=S)N/N=C/c1ncccc1N`, the GI50 is 1890 nM and the TGI turned out to be 10200 nM.
For the compound `O=c1nc2oc3ccc4ccccc4c3cc-2s1`, the GI50 is 551 nM and the TGI stood at 19500 nM.
On to `CCOc1ccccc1N=Nc1c(C)[nH]n(-c2nc(-c3ccccc3)cs2)c1=O`, for which the GI50 is 8490 nM and the TGI was over 100000 nM.
For `COc1ccc(/C=C2\CCCC3=C2NC(N)=NC3c2ccc(OC)c(OC)c2)cc1OC` (configuration not stated), in that order: 921 nM and 8840 nM.
For `CC[C@H](CO)Nc1nc(NCc2ccccc2)n2ncc(C(C)C)c2n1`, in that order: 1880 nM and 5190 nM.
For `O=[N+]([O-])c1cccc([As]=[As]c2cccc([N+](=O)[O-])c2)c1` (configuration not stated) the same measures were 52.9 nM and 194 nM.
With `CCCCN(CCCC)c1ccc(C(=N)c2ccc(N(CCCC)CCCC)cc2)cc1`, the GI50 was 189 nM and the TGI was determined as 748 nM.
Take `O=C(Nc1cccc(NC(=O)Nc2cc(C(F)(F)F)ccc2Cl)c1)Nc1cc(C(F)(F)F)ccc1Cl`: the GI50 is 1100 nM and the TGI is 7240 nM.
For `Cc1c2c(nn1C)CSCc1cc(n(C)n1)CSc1cc(c3ccccc3c1)OCCCc1c(C(=O)O)n(C)c3c-2c(Cl)ccc13` the same measures were 185 nM and 487 nM.
As for `CCOc1cc2ncc(C#N)c(Nc3ccc(OCc4ccccn4)c(Cl)c3)c2cc1NC(=O)/C=C/CN(C)C`, the GI50 was < 10 nM and 5.01 nM; the TGI was 41.5 nM and 47.9 nM.
For the compound `NC(=O)c1c(NC(=O)c2ccc3c(c2)OCO3)sc2c1CCC(=O)C2`, the GI50 was 1960 nM and the TGI stood at 4430 nM.
For `COc1cc(C2c3cc4c(cc3OC(NNC(N)=O)C2C)OCO4)cc(OC)c1O` (configuration not stated) the same measures were 7500 nM and over 100000 nM.
For `COC(=O)c1cc2ccc(OC(C)=O)c(OC(C)=O)c2cn1`, in that order: 16100 nM and 33500 nM.
On to `CS(=O)(=O)c1nccc(-c2c(-c3ccc(F)c(OCc4ccc(F)cc4)c3)nc3sccn23)n1`, for which the GI50 was 2430 nM and the TGI is 7030 nM.
For `Nc1nc(Nc2ccc(C3CCC(N4CCOCC4)CC3)cc2)nn1-c1ccccn1` (configuration not stated) the same measures were 11200 nM and over 100000 nM.
In the case of `CC1(C)[C@@H](OC(N)=O)[C@H]2O[C@H]2[C@]2(CO)[C@H]3CC[C@]4(C)[C@@H](c5ccc(=O)oc5)[C@@H](Cl)C[C@]4(O)C3=CC[C@@H]12`, the GI50 is 21 nM and the TGI stood at 96.5 nM.
As to `O=C(NC[C@H](O)CO)c1ccncc1Nc1ccc(I)cc1F`, the GI50 was > 10000 nM and 12100 nM; the TGI is over 66000 nM.
Regarding `COc1ccc(C(=O)c2cc3c(N)c(C(=O)Nc4cccc5ccccc45)sc3nc2C)cc1`, the GI50 is 220 nM and the TGI is over 50000 nM.
For `CN1CC[C@@H](c2c(O)cc(O)c3c(=O)cc(-c4ccccc4Cl)oc23)[C@@H]1CO` the same measures were 251 nM and 772 nM.
For `COc1cccc(-n2ncc3c(N/N=C/c4ccncc4)ncnc32)c1` the same measures were 5150 nM and over 25000 nM.
Turning to `Cn1cc(C2=C(c3cccc(OCC(O)CO)c3)C(=O)NC2=O)c2ccccc21` (configuration not stated), the GI50 is over 25000 nM and the TGI was over 25000 nM.
With `Cc1cc(N2CCCC2)nc(N(CCNc2ccnc3cc(Cl)ccc23)Cc2ccco2)n1`, the GI50 was 1960 nM and the TGI is 6670 nM.
For `COc1ccc(C(=O)/C=C/c2c(Cl)c3c(c(OC)c2Cl)OCC(=O)N3)cc1` the same measures were 1690 nM and 3700 nM.
As for `CC(C)(O)CC(=O)NCCn1ccc2ncnc(Nc3ccc(Oc4cccc(C(F)(F)F)c4)c(Cl)c3)c21`, the GI50 was 272 nM and the TGI was determined as 4060 nM.
For `COc1cc(C(=O)NC2CCN(C)CC2)c(F)cc1Nc1ncc2c(n1)N(C1CCCC1)CC(F)(F)C(=O)N2C`, the GI50 is under 10 nM and the TGI turned out to be 633 nM.
For `O=C(Nc1ccc(Cl)cc1)Nc1ccc(Nc2nncc3ccccc23)cc1` the same measures were 2570 nM and 9470 nM.
For `Nc1[nH]nc2nc(-c3cccs3)cc(C(F)(F)F)c12` the same measures were over 17100 nM and over 25000 nM.
For `CCN(CC)Cc1ccc(Nc2nccc(-c3cnn4ncccc34)n2)cc1` the same measures were 35 nM and 97.5 nM.
Consider `CN(C)c1ccc2c(c1)OC(N)=C(C#N)C2c1ccc2c(c1)CCO2` (configuration not stated), for which the GI50 is 117 nM and the TGI is 47700 nM.

(Values after PubChem BioAssay (NCI).)
